Data taken from the NIST ThermoML archive (doi:10.1021/je049652j).

Assay: molar heat capacity at constant pressure
Settings: 101.33 kPa, Liquid

CCCCCCCCl [1-chloroheptane]
Settings | molar heat capacity at constant pressure [J/K/mol]
284.15 K | 240.95
286.65 K | 241.75
289.15 K | 242.67
291.65 K | 243.4
294.15 K | 244.29
296.65 K | 245.23
299.15 K | 246.05
301.65 K | 247.03
304.15 K | 247.61
306.65 K | 248.53
309.15 K | 249.54
311.65 K | 250.65
314.15 K | 251.6
316.65 K | 252.2
319.15 K | 253.36
321.65 K | 254.42
324.15 K | 254.76
326.65 K | 256.19
329.15 K | 257.57
331.65 K | 258.06
334.15 K | 258.84
336.65 K | 259.88
339.15 K | 261.01
341.65 K | 261.55
344.15 K | 262.9
346.65 K | 263.26
349.15 K | 264.3
351.65 K | 266.04
353.15 K | 266.51

CCCCCCCl [1-chlorohexane]
Settings | molar heat capacity at constant pressure [J/K/mol]
284.15 K | 212.36
286.65 K | 213.23
289.15 K | 213.91
291.65 K | 214.63
294.15 K | 215.4
296.65 K | 216.12
299.15 K | 216.95
301.65 K | 217.75
304.15 K | 218.44
306.65 K | 219.22
309.15 K | 219.99
311.65 K | 221
314.15 K | 221.78
316.65 K | 222.49
319.15 K | 223.43
321.65 K | 224.31
324.15 K | 224.7
326.65 K | 226.02
329.15 K | 227.13
331.65 K | 228.86
334.15 K | 228.99
336.65 K | 229.44
339.15 K | 230.06
341.65 K | 231.22
344.15 K | 231.83
346.65 K | 232.32
349.15 K | 233.18
351.65 K | 234.56
353.15 K | 235.17

CCCCCCCCCl [1-chlorooctane]
Settings | molar heat capacity at constant pressure [J/K/mol]
284.15 K | 269.76
286.65 K | 270.79
289.15 K | 271.83
291.65 K | 272.66
294.15 K | 273.66
296.65 K | 274.53
299.15 K | 275.61
301.65 K | 276.52
304.15 K | 277.29
306.65 K | 278.37
309.15 K | 279.28
311.65 K | 280.5
314.15 K | 281.58
316.65 K | 282.47
319.15 K | 283.79
321.65 K | 284.92
324.15 K | 285.45
326.65 K | 286.81
329.15 K | 288.43
331.65 K | 289.95
334.15 K | 290.13
336.65 K | 291.34
339.15 K | 291.91
341.65 K | 293.56
344.15 K | 294.16
346.65 K | 294.82
349.15 K | 295.79
351.65 K | 297.21
353.15 K | 298.14

CCCCCCl [1-chloropentane]
Settings | molar heat capacity at constant pressure [J/K/mol]
284.15 K | 184.57
286.65 K | 185.29
289.15 K | 185.95
291.65 K | 186.52
294.15 K | 187.16
296.65 K | 187.66
299.15 K | 188.46
301.65 K | 189.19
304.15 K | 189.81
306.65 K | 190.32
309.15 K | 190.99
311.65 K | 191.89
314.15 K | 192.65
316.65 K | 193.22
319.15 K | 194.09
321.65 K | 194.69
324.15 K | 195.06
326.65 K | 196.14
329.15 K | 196.99
331.65 K | 197.64
334.15 K | 198.46
336.65 K | 199.23
339.15 K | 199.92
341.65 K | 200.41
344.15 K | 201.19
346.65 K | 201.73
349.15 K | 202.54
351.65 K | 203.57
353.15 K | 204.24

CCCCl [1-chloropropane]
Settings | molar heat capacity at constant pressure [J/K/mol]
284.15 K | 128.63
286.65 K | 128.99
289.15 K | 129.53
291.65 K | 130.1
294.15 K | 130.47
296.65 K | 130.95
299.15 K | 131.33
301.65 K | 131.88
304.15 K | 132.37
306.65 K | 132.94
309.15 K | 133.4
311.65 K | 133.92
314.15 K | 134.38

CCBr [bromoethane]
Settings | molar heat capacity at constant pressure [J/K/mol]
269.15 K | 104.07
271.65 K | 104.37
274.15 K | 104.6
276.65 K | 104.85
279.15 K | 105.14
281.65 K | 105.42
284.15 K | 105.63
286.65 K | 105.91
289.15 K | 106.14
291.65 K | 106.42
294.15 K | 106.75
296.65 K | 107.09
299.15 K | 107.42
